The values below come from patent US20250326771A1, “PIPERAZINE DERIVATIVES USEFUL IN HIV THERAPY” (VIIV HEALTHCARE COMPANY, priority 2022, published 2025).

The target of assay [1] is cIAP2-BIR3 (Homo sapiens (Human), UniProt Q13489). The assay can be described thus: BIR binding assay (FRET competition), cIAP2 BIR3. The following applies: for cIAP2 BIR3 vs BIR2 separation window: fold separation (FS) for cIAP2.
In assay [2] the target is cIAP1-BIR2 (Homo sapiens (Human), UniProt Q13490). The experiment in a line: BIR binding assay (FRET competition), cIAP1 BIR2. The method, boiled down: (§1)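 His-tagged domains (50 nM cIAP1-BIR3, 325 nM cIAP2-BIR2, 325 nM cIAP1-BIR2, 100 nM XIAP-BIR3) compete with compounds for a 200 nM AlexaFluor647-labelled SMAC/DIABLO peptide in HEPES buffer, pH 7.4, for 60 min. Then 2 nM Eu-W1024 is added for 30 min. The 615/665 nm ratio is fit by four-parameter fit to give IC50.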

The target of assay [3] is cIAP2-BIR2 (Homo sapiens (Human), UniProt Q13489). The assay can be described thus: BIR binding assay (FRET competition), cIAP2 BIR2. The method, boiled down: as §1
Assay [4] deals with XIAP-BIR2 (Homo sapiens (Human), UniProt P98170). The experiment in a line: BIR binding assay (FRET competition), XIAP BIR2. The conditions noted are these: FRET competition binding; for IC50: read-out: XIAP BIR2 (pIC50) (converted). In short, it runs like this: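 Compounds in a 15-point, 3-fold series competed with an AlexaFluor647 SMAC peptide (AVPIAQKSE, 200 nM) for 200 nM His-tagged XIAP-BIR2 over 60 min in pH 7.4 HEPES/CHAPS/DTT buffer. Eu-W1024 (2 nM) was then added for 30 min. IC50 and pIC50 were derived from the 615 nm/665 nm emission ratio by variable-slope fit.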

The target in assay [5] is XIAP-BIR3 (Homo sapiens (Human), UniProt P98170). The assay can be described thus: BIR binding assay (FRET competition), XIAP BIR3. The following applies: for XIAP BIR3 vs BIR2 separation window: fold separation (FS) for XIAP. In short, it runs like this:
as §1

Assay [6] deals with cIAP1-BIR3 (Homo sapiens (Human), UniProt Q13490). The experiment in a line: BIR binding assay (FRET competition), cIAP1 BIR3. The conditions noted are these: for cIAP1 BIR3 vs BIR2 separation window: fold separation (FS) for cIAP1. The method, boiled down: as §1
The subject of assay [7] is Jurkat HIV-luciferase clones. The experiment in a line: Jurkat latency reversal assay. The conditions noted are these: Homo sapiens, 48 h; Jurkat latency reversal assay potency; read-out: Jurkat pEC50 (converted). Format: cell-based. The method, boiled down:
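Three pooled Jurkat reporter clones, each with one or two integrated HIV-luciferase proviruses, 5,000 cells/well; duplicate 14-point titrations starting at 10 μM; 48 h, 37° C, then Steady-Glo luminescence; four-parameter logistic analysis yields EC50 and percent maximal activation against DMSO vehicle.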

XIAP-BIR3, sequence (P98170 241-356): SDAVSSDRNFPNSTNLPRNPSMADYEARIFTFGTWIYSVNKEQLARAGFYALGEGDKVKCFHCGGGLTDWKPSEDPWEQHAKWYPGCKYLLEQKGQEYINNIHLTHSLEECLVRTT
cIAP1-BIR3, sequence (Q13490 253-363): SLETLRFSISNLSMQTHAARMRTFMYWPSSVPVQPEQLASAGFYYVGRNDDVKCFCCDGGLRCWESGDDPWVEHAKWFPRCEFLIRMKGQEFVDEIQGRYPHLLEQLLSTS
cIAP2-BIR3, sequence (Q13489 238-349): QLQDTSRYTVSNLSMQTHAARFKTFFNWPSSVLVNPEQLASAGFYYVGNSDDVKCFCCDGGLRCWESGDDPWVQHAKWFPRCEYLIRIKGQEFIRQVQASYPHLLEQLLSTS
cIAP1-BIR2, sequence (Q13490 173-257): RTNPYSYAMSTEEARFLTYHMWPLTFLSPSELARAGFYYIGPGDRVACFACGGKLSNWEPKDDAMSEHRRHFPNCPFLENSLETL
XIAP-BIR2, sequence (P98170 124-240): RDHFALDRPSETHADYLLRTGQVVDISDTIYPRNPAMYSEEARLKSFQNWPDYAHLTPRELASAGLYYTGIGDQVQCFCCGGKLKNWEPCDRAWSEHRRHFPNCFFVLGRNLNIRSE
cIAP2-BIR2, sequence (Q13489 158-242): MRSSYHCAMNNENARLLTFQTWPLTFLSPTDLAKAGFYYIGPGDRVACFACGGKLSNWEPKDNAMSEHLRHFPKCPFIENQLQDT

On to `C[C@@H]1CN(CC(=O)N2CC(C)(C)c3[nH]c(=O)c(Cc4ccc(F)cc4)cc32)[C@@H](CN2CCN(C(=O)CN(C)CC(=O)N3CCN(C[C@H]4CN[C@H](C)CN4CC(=O)N4CC(C)(C)c5[nH]c(=O)c(Cc6ccc(F)cc6)cc54)[C@H](C)C3)C[C@H]2C)CN1` [Example 15, 1,1′-(2,2′-((3R,3′R,6R,6′R)-(((2R,2′R)-(2,2′-(methylazanediyl)bis(acetyl))bis(2-methylpiperazine-4,1-diyl))bis(methylene))bis(3-methylpiperazine-6,1-diyl))bis(acetyl))bis(6-(4-fluorobenzyl)-3,3-dimethyl-1,2,3,4-tetrahydro-5H-pyrrolo[3,2-b]pyridin-5-one)], for which the IC50 in assay [1] was 1.38 to 7.94 nM; in assay [2], 22.4 to 1000 nM; in assay [3] it was 22.4 to 1000 nM; in assay [4] it was 10000 to 51300 nM; in assay [5], 1.38 to 7.94 nM; in assay [6] it was 1.38 to 7.94 nM. In addition, the EC50 in assay [7] is 63.1 to 316 nM.
As for `C[C@@H]1CN(CC(=O)N2CC(C)(C)c3[nH]c(=O)c(Cc4ccc(F)cc4)cc32)[C@@H](CN2CCN(C(=O)c3cccnc3-c3ncccc3C(=O)N3CCN(C[C@H]4CN[C@H](C)CN4CC(=O)N4CC(C)(C)c5[nH]c(=O)c(Cc6ccc(F)cc6)cc54)[C@H](C)C3)C[C@H]2C)CN1` [Example 17, 1,1′-(2,2′-((3R,3′R,6R,6′R)-(((2R,2′R)-([2,2′-bipyridine]-3,3′-dicarbonyl)bis(2-methylpiperazine-4,1-diyl))bis(methylene))bis(3-methylpiperazine-6,1-diyl))bis(acetyl))bis(6-(4-fluorobenzyl)-3,3-dimethyl-1,2,3,4-tetrahydro-5H-pyrrolo[3,2-b]pyridin-5-one)], the IC50 in assay [1] was 1.38 to 7.94 nM; in assay [2], 22.4 to 1000 nM; in assay [3], 22.4 to 1000 nM; in assay [4], 10000 to 51300 nM; in assay [5] it was 1.38 to 7.94 nM; in assay [6] it was 1.38 to 7.94 nM. Moreover, the “cIAP2 BIR3 vs BIR2 separation window” value in assay [1] is “++ (1,000>FS>100)”. Further, the “XIAP BIR3 vs BIR2 separation window” value in assay [5] is “++++ (FS>10,000)”. The “cIAP1 BIR3 vs BIR2 separation window” value in assay [6] was “++ (1,000>FS>100)”. The EC50 in assay [7] was 316 to 3310 nM.
Take `C[C@@H]1CN(CC(=O)N2CC(C)(C)c3[nH]c(=O)c(Cc4ccc(F)cc4)cc32)[C@@H](CN2CCN(C(=O)c3ccc4cc(C(=O)N5CCN(C[C@H]6CN[C@H](C)CN6CC(=O)N6CC(C)(C)c7[nH]c(=O)c(Cc8ccc(F)cc8)cc76)[C@H](C)C5)ccc4c3)C[C@H]2C)CN1` [Example 18, 1,1′-(2,2′-((3R,3′R,6R,6′R)-(((2R,2′R)-(naphthalene-2,6-dicarbonyl)bis(2-methylpiperazine-4,1-diyl))bis(methylene))bis(3-methylpiperazine-6,1-diyl))bis(acetyl))bis(6-(4-fluorobenzyl)-3,3-dimethyl-1,2,3,4-tetrahydro-5H-pyrrolo[3,2-b]pyridin-5-one)]: the IC50 is 1.38 to 7.94 nM in assay [1]; 1000 to 3160 nM in assay [2]; 1000 to 3160 nM in assay [3]; 10000 to 51300 nM in assay [4]; 1.38 to 7.94 nM in assay [5]; 1.38 to 7.94 nM in assay [6]. In addition, the “cIAP2 BIR3 vs BIR2 separation window” value in assay [1] is “+++ (10,000>FS>1,000)”. Besides, the “XIAP BIR3 vs BIR2 separation window” value in assay [5] is “++++ (FS>10,000)”. In addition, the “cIAP1 BIR3 vs BIR2 separation window” value in assay [6] is listed as “+++ (10,000>FS>1,000)”. Further, the EC50 in assay [7] was 12.6 to 63.1 nM.
Turning to `C[C@@H]1CN(CC(=O)N2CC(C)(C)c3[nH]c(=O)c(Cc4ccc(F)cc4)cc32)[C@@H](CN2CCN(C(=O)c3ccc(C(=O)N4CCN(C[C@H]5CN[C@H](C)CN5CC(=O)N5CC(C)(C)c6[nH]c(=O)c(Cc7ccc(F)cc7)cc65)[C@H](C)C4)cc3)C[C@H]2C)CN1` [Example 19, 1,1′-(2,2′-((3R,3′R,6R,6′R)-(((2R,2′R)-terephthaloylbis(2-methylpiperazine-4,1-diyl))bis(methylene))bis(3-methylpiperazine-6,1-diyl))bis(acetyl))bis(6-(4-fluorobenzyl)-3,3-dimethyl-1,2,3,4-tetrahydro-5H-pyrrolo[3,2-b]pyridin-5-one)], the IC50 in assay [1] was 1.38 to 7.94 nM; in assay [2], 22.4 to 1000 nM; in assay [3], 22.4 to 1000 nM; in assay [5] it was 1.38 to 7.94 nM; in assay [6], 1.38 to 7.94 nM. For the same compound, the “cIAP2 BIR3 vs BIR2 separation window” value in assay [1] is “+++ (10,000>FS>1,000)”. In addition, the “XIAP BIR2 (pIC50)” value in assay [4] was “+ (4.29<pIC50<=5.00)”. Besides, in assay [5], the “XIAP BIR3 vs BIR2 separation window” value is reported as “++++ (FS>10,000)”. Besides, in assay [6], the “cIAP1 BIR3 vs BIR2 separation window” value is recorded as “+++ (10,000>FS>1,000)”. For the same compound, in assay [7], the EC50 was 63.1 to 316 nM.
As to `C[C@@H]1CN(CC(=O)N2CC(C)(C)c3[nH]c(=O)c(Cc4ccc(F)cc4)cc32)[C@@H](CN2CCN(C(=O)c3ccnc(-c4cc(C(=O)N5CCN(C[C@H]6CN[C@H](C)CN6CC(=O)N6CC(C)(C)c7[nH]c(=O)c(Cc8ccc(F)cc8)cc76)[C@H](C)C5)ccn4)c3)C[C@H]2C)CN1` [Example 23, 1,1′-(2,2′-((3R,3′R,6R,6′R)-(((2R,2′R)-([2,2′-bipyridine]-4,4′-dicarbonyl)bis(2-methylpiperazine-4,1-diyl))bis(methylene))bis(3-methylpiperazine-6,1-diyl))bis(acetyl))bis(6-(4-fluorobenzyl)-3,3-dimethyl-1,2,3,4-tetrahydro-5H-pyrrolo[3,2-b]pyridin-5-one)], the IC50 in assay [1] is 1.38 to 7.94 nM; in assay [2], 1000 to 3160 nM; in assay [3] it was 1000 to 3160 nM; in assay [4] it was 10000 to 51300 nM; in assay [5], 1.38 to 7.94 nM; in assay [6] it was 1.38 to 7.94 nM. In assay [7], the EC50 is 63.1 to 316 nM.
As to `C[C@@H]1CN(CC(=O)N2CC(C)(C)c3[nH]c(=O)c(Cc4ccc(F)cc4)cc32)[C@@H](CN2CCN(Cc3c(F)c(F)c(CN4CCN(C[C@H]5CN[C@H](C)CN5CC(=O)N5CC(C)(C)c6[nH]c(=O)c(Cc7ccc(F)cc7)cc65)[C@H](C)C4)c(F)c3F)C[C@H]2C)CN1` [Example 28, 1,1′-(2,2′-((3R,3′R,6R,6′R)-(((2R,2′R)-((perfluoro-1,4-phenylene)bis(methylene))bis(2-methylpiperazine-4,1-diyl))bis(methylene))bis(3-methylpiperazine-6,1-diyl))bis(acetyl))bis(6-(4-fluorobenzyl)-3,3-dimethyl-1,2,3,4-tetrahydro-5H-pyrrolo [3,2-b]pyridin-5-one)], the IC50 in assay [1] was 15.8 to 31.6 nM; in assay [2] it was 1000 to 3160 nM; in assay [3] it was 3160 to 10000 nM; in assay [4], 10000 to 51300 nM; in assay [5], 31.6 to 501 nM; in assay [6], 15.8 to 31.6 nM. The “cIAP2 BIR3 vs BIR2 separation window” value in assay [1] is “+++ (10,000>FS>1,000)”. The “XIAP BIR3 vs BIR2 separation window” value in assay [5] is “+++ (10,000>FS>1,000)”. Further, in assay [6], the “cIAP1 BIR3 vs BIR2 separation window” value was “+++ (10,000>FS>1,000)”. Further, the EC50 in assay [7] is 316 to 3310 nM.
Turning to `C[C@@H]1CN(CC(=O)N2CC(C)(C)c3[nH]c(=O)c(Cc4ccc(F)cc4)cc32)[C@@H](CN2CCC[C@H](NC(=O)Cc3cccc(CC(=O)N[C@H]4CCCN(C[C@H]5CN[C@H](C)CN5CC(=O)N5CC(C)(C)c6[nH]c(=O)c(Cc7ccc(F)cc7)cc65)C4)c3)C2)CN1` [Example 41, 2,2′-(1,3-phenylene)bis(N-((S)-1-(((2R,5R)-1-(2-(6-(4-fluorobenzyl)-3,3-dimethyl-5-oxo-2,3,4,5-tetrahydro-1H-pyrrolo[3,2-b]pyridin-1-yl)-2-oxoethyl)-5-methylpiperazin-2-yl)methyl)piperidin-3-yl)acetamide)], the IC50 in assay [1] was 31.6 to 501 nM; in assay [2] it was 3160 to 10000 nM; in assay [3], 3160 to 10000 nM; in assay [4], 10000 to 51300 nM; in assay [5], 31.6 to 501 nM; in assay [6] it was 31.6 to 501 nM. Also, the “cIAP2 BIR3 vs BIR2 separation window” value in assay [1] is on record as “+++ (10,000>FS>1,000)”. In addition, the “XIAP BIR3 vs BIR2 separation window” value in assay [5] is “+++ (10,000>FS>1,000)”. For the same compound, the “cIAP1 BIR3 vs BIR2 separation window” value in assay [6] is given as “+++ (10,000>FS>1,000)”. In addition, the EC50 in assay [7] was 316 to 3310 nM.
As to `C[C@@H]1CN(CC(=O)N2CC(C)(C)c3[nH]c(=O)c(Cc4ccc(F)cc4)cc32)[C@@H](CN2CCC[C@H](NC(=O)Cc3ccc(CC(=O)N[C@H]4CCCN(C[C@H]5CN[C@H](C)CN5CC(=O)N5CC(C)(C)c6[nH]c(=O)c(Cc7ccc(F)cc7)cc65)C4)cc3)C2)CN1` [Example 42, 2,2′-(1,4-phenylene)bis(N-((S)-1-(((2R,5R)-1-(2-(6-(4-fluorobenzyl)-3,3-dimethyl-5-oxo-2,3,4,5-tetrahydro-1H-pyrrolo[3,2-b]pyridin-1-yl)-2-oxoethyl)-5-methylpiperazin-2-yl)methyl)piperidin-3-yl)acetamide)], in assay [1] (FRET competition binding), the “cIAP2 BIR3 (pIC50)” value is “++ (7.80>pIC50>=7.50)”. Besides, the “cIAP2 BIR3 vs BIR2 separation window” value in assay [1] is “+++ (10,000>FS>1,000)”. In addition, the IC50 was in the range of 3160 to 10000 nM in assay [2], 3160 to 10000 nM in assay [3], 31.6 to 501 nM in assay [5] and 31.6 to 501 nM in assay [6]. For the same compound, the “XIAP BIR2 (pIC50)” value in assay [4] is listed as “+ (4.29<pIC50<=5.00)”. The “XIAP BIR3 vs BIR2 separation window” value in assay [5] is on record as “+++ (10,000>FS>1,000)”. Further, the “cIAP1 BIR3 vs BIR2 separation window” value in assay [6] is given as “++ (1,000>FS>100)”. Further, the EC50 in assay [7] was 316 to 3310 nM.
